The source of these data is article PMC6646369, “A new bioavailable fenretinide formulation with antiproliferative, antimetabolic, and cytotoxic effects on solid tumors” (Cell Death & Disease, 2019).

Data set [1] can be described thus: Aqueous solubility of fenretinide (saturation in water, spectrophotometric at 360 nm). It is filed as physicochemical. The following applies: water at 25 °C; read-out: Solubility in H2O. As for the experimental part: The first step of NanoFEN preparation involved fenretinide salification to raise its aqueous solubility to the extent required for complexation with cyclodextrins. […] The complex was analyzed by ^1H-NMR to detect the presence of chemical shift changes with respect to the free drug as indicators of fenretinide inclusion into the cyclodextrin hydrophobic cavity. […] The ^1H-NMR spectra were recorded by an Inova 600 MHz High Resolution NMR Spectrometer. The amount of fenretinide incorporated into the complex was spectrophotometrically determined in solutions obtained by dissolving known amounts of the solid complex in a water:ethanol (1:1, v-v) mixture with the aim to dissociate the drug from the complex and maintain its solubilization in the aqueous phase in the presence of ethanol. The hydro-alcoholic solutions were analyzed for their fenretinide content at the maximum wavelength of the fenretinide absorption (360 nm). The aqueous solubility of fenretinide complexed with 2-hydroxypropyl-β-cyclodextrin was measured in comparison with the pure drug. […] After filtration the saturated solutions were spectrophotometrically analysed at 360 nm for their fenretinide content.

Data set [2] in a line: Plasma pharmacokinetics of fenretinide in mice. It is filed as in vivo, CD1 female mice. The protocol: The experiments were performed in CD1 female mice, 7 weeks of age, (body weight 25 ± 2 g) obtained from Envigo RMS SrL (Udine, Italy). Mice were maintained under specific-pathogen-free conditions with constant temperature and humidity, according to the institutional guidelines of the Istituto Superiore di Sanità Animal Care Committee. Animal experimentation was conducted in conformance with the following laws, regulations, and policies governing the care and use of laboratory animals: Italian Governing Law (D. l. 26/2014; Authorization n.19/2008-A issued March 6, 2008 by the Ministry of Health). The pharmacokinetics of NanoFEN, administered by oral or intravenous route, was investigated in mice receiving the formulation at doses corresponding to 5 mg/kg of fenretinide. The intravenous administration was carried out by injection in the tail vein of an intravenous bolus of NanoFEN dissolved in water or PureFEN suspended in a mixture of ethanol 10 % in saline as a comparison. For the oral administration the mice were gavaged the with NanoFEN dissolved in water or with the reconstituted content of the NCI capules, i.e., fenretinide (100 mg) in corn oil (704 mg) and Polysorbate 80 (60 mg) as a comparison. After the intravenous or oral treatments, a series of blood samples were taken at 15 and 30 min and at 1, 2, 4, 8, 10, 24 and 48 h. Blood was collected in heparinized tubes from the retro-orbital plexus of the mice under isoflurane anesthesia. To obtain plasma, blood samples were centrifuged at 4000 rpm for 10 min at 4 °C. The samples were stored at −20 °C until analysis. The total concentration of fenretinide in plasma of mice was determined according to a method previously described. Briefly, aliquot of 200 μl of each plasma sample was added to 400 μl of Acetonitrile (CH3CN) containing 125 μg/mL Butylated hydroxytoluene (BHT), and the mixture was vortexed and centrifuged to pellet the precipitated proteins. The recovered supernatants were analysed on a liquid chromatograph (Perkin-Elmer, Norwall, CT) fitted with a C18 (50 mm × 2.0 mm, 5 μm) reverse-phase column and a C18 precolumn (Perkin-Elmer, Milan, Italy). The mobile phase consisted of CH3CN:H2O:CH3COOH (75:2:2, v:v:v) delivered at a flow rate of 2 mL/min. Detection was carried out with a Perkin-Elmer LC95 absorbance detector at 362 nm. N-(4-ethoxyphenyl)-retinamide (EPR) was used as internal standard. For the quantitative evaluation, reference standard curves were set up in control mouse plasma with different known amounts of NanoFEN or PureFEN. The measured fenretinide concentration-vs-time data were elaborated by non-compartmental analysis (WinNonLin software v3) to obtain the main pharmacokinetic parameters of NanoFEN.

Setting [3] is: mouse, iv, CD1 female mice, 5 mg/Kg fenretinide, plasma.
Setting [4] is: mouse, plasma, iv, CD1 female mice, 5 mg/Kg fenretinide.

Each structure is given as a SMILES string. In brackets after ≈: the same amount, converted by molar mass.

For orientation: solubility means the dissolved amount per volume that the medium holds. One may read the AUC as the area under the concentration-time curve, a measure of exposure. Low readings indicate less exposure, high ones more exposure. As usually defined, the AUC(0-inf) is total exposure, with the tail of the curve extrapolated. A high value points to more exposure. By AUC(0-t) is commonly meant exposure summed from dosing to a finite time, without extrapolation to infinity. A high value points to high exposure. A word on the Cmax: it is the highest concentration seen after dosing. What is called Vd is a proportionality between amount in the body and measured concentration, not a real space. A low value points to confinement near the circulation. By clearance is commonly meant the volume of plasma or blood freed of the substance per unit of time. Turning to `CC1=C(/C=C/C(C)=C/C=C/C(C)=C/C(=O)Nc2ccc(O)cc2)C(C)(C)CCC1` [PureFEN, N-(4-Hydroxyphenyl) retinamide], in data set [1], the solubility at 12 h was found to be 1.71 µg/mL (≈ 4.37 µM). Further, the HL in data set [2] (CD1 female mice, 5 mg/Kg fenretinide, i.v.) is listed as 7.87 h. The AUC in data set [2] (female, CD1, mouse, iv, Fig. 1e, single administration of 5 mg/kg, plasma) was determined as 6570 ng·h/mL. In data set [2] (setting [3]), the AUC(0-inf) was 6570 ng·h/mL, the AUC(0-t) stood at 6420 ng·h/mL and the Cmax was determined as 4130 ng/mL. For the same compound, in data set [2] (setting [4]), the Vd was 6.52 L/kg and the clearance is 9.57 mL/min/kg. The k el in data set [2] (mouse, plasma, iv, CD1 female mice, 5 mg/Kg fenretinide, i.v., read-out: Ke (converted)) is 2.44e-05 s⁻¹.
